Laboratory results as given in the supplement of paper PMC10307832.

Experiments:
Experiment in all cases: relative viability (nuclei count vs DMSO), 5 days (fraction); higher = more cells survive
[1] = tested on: NCI-H441
How it was run: (§1)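 Nuclei were stained with Hoechst during a one-step fixation (final 0.05% Triton X-100, 1% formaldehyde, 1 ug/ml Hoechst) carried out 5 days after dosing, then counted on 4× images. The cells, lung cancer lines in 1536-well plates, had been dosed by pin tool the day after seeding with one drug alone or a fixed anchor-drug dose plus five library-drug doses (not always all listed) in √10 steps. Relative viability is the nuclei count in treated wells divided by that in vehicle wells, and each value is the median of duplicate plates.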

[2] = tested on: NCI-H2347
How it was run: as §1

[3] = tested on: HCC-15
How it was run: as §1

[4] = tested on: NCI-H2009
How it was run: as §1

[5] = tested on: NCI-H1944
How it was run: as §1

[6] = tested on: LC-2-ad
How it was run: as §1

[7] = tested on: LK-2
How it was run: as §1

[8] = tested on: NCI-H838
How it was run: as §1

[9] = tested on: NCI-H1915
How it was run: as §1

[10] = tested on: NCI-H2023
How it was run: as §1

[11] = tested on: A-427
How it was run: as §1

Molecule CCNC(=O)c1noc(-c2cc(C(C)C)c(O)cc2O)c1-c1ccc(CN2CCOCC2)cc1 [Luminespib] + C[C@]1(O)C[C@@H](c2nc(-c3ccc4ccc(-c5ccccc5)nc4c3)c3c(N)nccn32)C1 [Linsitinib] (partner 1 µM) has a relative viability ([1]; first compound 0.02 µM) of 0.485, a relative viability ([1]; first compound 0.06325 µM) of 0.108 and a relative viability ([1]; first compound 0.2 µM) of 0.0934. For the same molecule, the relative viability ([2]; first compound 0.002 µM) was 1.03, the relative viability ([2]; first compound 0.02 µM) was 0.824 and the relative viability ([2]; first compound 0.06325 µM) was 0.924. For the same molecule, the relative viability ([2]; first compound 0.2 µM) was 0.404, the relative viability ([3]; first compound 0.002 µM) was 0.837 and the relative viability ([3]; first compound 0.006325 µM) was 0.873. It also gave a relative viability ([3]; first compound 0.02 µM) of 0.929, a relative viability ([3]; first compound 0.06325 µM) of 0.57 and a relative viability ([3]; first compound 0.2 µM) of 0.519. For the same molecule, the relative viability ([4]; first compound 0.002 µM) was 1.21, the relative viability ([4]; first compound 0.006325 µM) was 1.2 and the relative viability ([4]; first compound 0.02 µM) was 1.21. The relative viability ([4]; first compound 0.06325 µM) was 1.13, the relative viability ([4]; first compound 0.2 µM) was 0.0697 and the relative viability ([5]; first compound 0.002 µM) was 1.21. It also gave a relative viability ([5]; first compound 0.006325 µM) of 1.1, a relative viability ([5]; first compound 0.02 µM) of 0.791 and a relative viability ([5]; first compound 0.06325 µM) of 1.07. It also gave a relative viability ([5]; first compound 0.2 µM) of 1.09, a relative viability ([6]; first compound 0.002 µM) of 0.887 and a relative viability ([6]; first compound 0.006325 µM) of 0.806. The relative viability ([6]; first compound 0.02 µM) was 0.808, the relative viability ([6]; first compound 0.06325 µM) was 0.165 and the relative viability ([6]; first compound 0.2 µM) was 0.129. For the same molecule, the relative viability ([7]; first compound 0.002 µM) was 0.747, the relative viability ([7]; first compound 0.006325 µM) was 0.522 and the relative viability ([7]; first compound 0.02 µM) was 0.455. For the same molecule, the relative viability ([7]; first compound 0.06325 µM) was 0.301, the relative viability ([7]; first compound 0.2 µM) was 0.109 and the relative viability ([8]; first compound 0.002 µM) was 1. The relative viability ([8]; first compound 0.006325 µM) was 0.942, the relative viability ([8]; first compound 0.02 µM) was 0.77 and the relative viability ([8]; first compound 0.06325 µM) was 0.13. For the same molecule, the relative viability ([8]; first compound 0.2 µM) was 0.149, the relative viability ([9]; first compound 0.002 µM) was 1.12 and the relative viability ([9]; first compound 0.006325 µM) was 1.09. For the same molecule, the relative viability ([9]; first compound 0.02 µM) was 1.02, the relative viability ([9]; first compound 0.06325 µM) was 1.11 and the relative viability ([9]; first compound 0.2 µM) was 1.05. The relative viability ([10]; first compound 0.002 µM) was 0.652, the relative viability ([10]; first compound 0.006325 µM) was 0.575 and the relative viability ([10]; first compound 0.02 µM) was 0.732. It also gave a relative viability ([10]; first compound 0.06325 µM) of 0.0892, a relative viability ([10]; first compound 0.2 µM) of 0.0832 and a relative viability ([11]; first compound 0.002 µM) of 1.12. For the same molecule, the relative viability ([11]; first compound 0.006325 µM) was 1.09, the relative viability ([11]; first compound 0.02 µM) was 0.918 and the relative viability ([11]; first compound 0.06325 µM) was 1.12. For the same molecule, the relative viability ([11]; first compound 0.2 µM) was 1.09.
